Experimental data reported in patent US7528132B2, “Kinase inhibitors” (Schering Corporation, priority 2005, dated 2009).
Like-named read-outs stand apart in the source and are kept apart here.

Biological target: T1, Akt1 (Homo sapiens, UniProt P31749)
T1 construct: made in house; host or cells: Sf9 insect cells (baculovirus, pBlueBacHis2B)
Assay: Akt1 kinase assay (33P phosphorylation of biotinylated peptide, Flash plates)
Assay type: biochemical
Settings: for inhibition at 1.1 µg/mL: assayed at a concentration of 1.1 mcg/mL
Description: The assay described below measures the phosphorylation of a biotinylated peptide by active recombinant Akt1 and other kinase isoforms. The biotinylated peptide contains a consensus sequence derived from Akt substrate Gsk3 (Glycogen synthase kinase 3). The ^33P-labeled peptide substrate was captured by streptavidin-coated Flash plates.
Active recombinant Akt1 was expressed in Sf9 insect cells and purified as described by Kumar et al., Biochim. Biophys. Acta. Jun. 15, 2001, 1526(3), 257-268. Biotinylated peptide of the sequence Bio-ahx-RPRAASF was purchased from Syn Pep (Dublin, Calif., USA).
Cloning and Expression of Human Akt1 Sf9 Cells
Human Akt1 cDNA was amplified from a marathon-ready human lung cDNA library (Clonetech) using nested oligo primers as described below. The first round of amplification was carried out using the following primers; Akt1F1 ([…]) and Akt1R1 (TCCATC […]) and for the second round amplification, the primers of the following sequence were used; Akt1F2 (GGATCCTCGG […]) and AKT1R2 (GGTACCATCGTC […]). The PCR product was subcloned into pCRScript plasmid as a BamHI/KpnI fragment and the sequence of the cDNA was confirmed by DNA sequencing. This plasmid was used as a template for reamplification of Akt1 using appropriate primers for subcloning into pBlueBaHis2B into BamH1/EcoRI sites to generate an in frame fusion to (His)6 tag and an anti-Xpress antibody epitope tag at the N-terminus. This construct was sequenced to verify the junction sequences and used for generating a recombinant baculovirus. Growth of the recombinant virus, amplification and determination of viral titer were carried out according to the instructions from the manufacturer (InVitrogen, CA).
Purification of Akt1 from Sf9 Cells
Viral stocks were used to infect large scale Sf9 cells at a multiplicity of infection (MOI) of 2.5. Cells were maintained at 27° C. for 60 h and okadaic acid was added to the cultures to a concentration of 50 nM. Cells were harvested 4 h hours later by centrifugation at 1200 rpm for 30 min followed by freezing at −80° C. until further use. All purification steps were carried out at 4° C. Whole cell pellets were suspended in buffer A (20 mM sodium phosphate buffer pH 7.8, 500 mM NaCl, 1 mM sodium vanadate, 5 mM sodium fluoride, 40 mM β-glycerophosphate, 10 mM imidazole and protease inhibitor cocktail) and lysed using a microfluidizer. The cell extract was centrifuged at 16,000×g for 10 min to remove the debris and directly loaded onto Ni-NTA Superflow resin using a FPLC pump operated at 1 ml/min. The column was washed once with buffer A, once with wash buffer B (20 mM sodium phosphate pH 6.0, 1 mM sodium vanadate, 5 mM sodium fluoride and protease cocktail) and once with wash buffer B containing 0.05% Tween-20 followed by washing with buffer A until OD260 returned to basal level. Proteins were eluted with buffer A containing 200 mM imidazole. Fractions were analyzed by electrophoresis on 10% denaturing polyacrylamide gels and fractions containing 85% pure protein band at 60 KDa were pooled and dialyzed against buffer C (20 mM Tris-HCl pH 7.5, 0.5 mM EDTA,-2 mM DTT, 145 mM NaCl, 0.1 mM sodium vanadate, 5 mM sodium fluoride, 10 mM, β-glycerophosphate and 20% glycerol). Purified protein was stored as aliquots at −80° C. Protein concentrations were determined using BCA protein assay reagent A (Catalog #23228). To examine the identity of the proteins, 2 μg of purified protein was electrophoresed on SDS-polyacrylamide gels and stained with coomassie blue dye or transferred to nitrocellulose membrane and probed with anti-Akt and anti-phospho-specific Akt antibodies using enhanced chemiluminescence (ECL) reagent according to the protocol described by the manufacturer (Amersham).
The kinase assay was performed in 96 well plates at room temperature. Assay solutions and plates were preincubated at room temperature for 5 min. […]

[1] = read-out: IC50 rating (AKT1 inhibition)

T1 sequence (P31749 whole entry): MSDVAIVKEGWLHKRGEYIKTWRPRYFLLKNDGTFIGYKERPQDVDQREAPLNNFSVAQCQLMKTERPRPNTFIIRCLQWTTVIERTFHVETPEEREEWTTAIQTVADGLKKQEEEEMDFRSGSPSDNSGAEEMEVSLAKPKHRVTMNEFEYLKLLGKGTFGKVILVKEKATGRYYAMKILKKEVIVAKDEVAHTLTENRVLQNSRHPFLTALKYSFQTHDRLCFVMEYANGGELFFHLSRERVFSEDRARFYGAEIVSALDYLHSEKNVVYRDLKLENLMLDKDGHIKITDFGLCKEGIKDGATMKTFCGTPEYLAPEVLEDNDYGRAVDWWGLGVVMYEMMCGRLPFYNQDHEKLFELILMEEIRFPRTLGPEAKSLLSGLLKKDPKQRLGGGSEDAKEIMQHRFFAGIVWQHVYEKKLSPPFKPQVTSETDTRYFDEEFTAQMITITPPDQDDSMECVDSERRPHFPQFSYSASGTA

| SMILES | inhibition at 1.1 µg/mL [%] | IC50 (read-out: IC50 (AKT1 inhibition)) [nM] | IC50 [1] [nM] |
| --- | --- | --- | --- |
| Cc1n[nH]c2ccc(-c3nncc(N4CCNC(Cc5cccnc5)C4)n3)cc12 (stereo not drawn) [Compound 57, 3-(3-Methylindazol-5-yl)-5-[3-(pyridin-3-ylmethyl)piperazin-1-yl]-[1,2,4]triazine] | – | – | 100 to 1000 |
| CNC1CCN(c2nc(-c3ccc4[nH]nc(C)c4c3)nnc2N)C1 (stereo not drawn) [Compound 84, 6-amino-5-(3-methylaminopyrrolidin-1-yl)-3-(3-methylindazol-5-yl)-[1,2,4]triazine] | – | – | 100 to 1000 |
| Cc1n[nH]c2ccc(-c3nncc(N4CCN5CCCCC5C4)n3)cc12 (stereo not drawn) [Compound 30, 5-(1,4-diazabicyclo[4.4.0]dec-1-yl)-3-(3-methylindazol-5-yl)-[1,2,4]triazine] | – | – | > 1000 |
| Cc1n[nH]c2ccc(-c3nncc(N4CCCC(N)C4)n3)cc12 (stereo not drawn) [Compound 33, 5-(3-aminopiperidin-1-yl)-3-(3-methylindazol-5-yl)-[1,2,4]triazine] | – | – | 100 to 1000 |
| CCOC(=O)C1(Cc2ccccc2)CCCN(c2cnnc(-c3ccc4[nH]nc(C)c4c3)n2)C1 (stereo not drawn) [Compound 62, 5-(3-benzyl-3-ethoxycarbonylpiperidin-1-yl)-3-(3-methylindazol-5-yl)-[1,2,4]triazine] | – | – | 100 to 1000 |
| Cc1n[nH]c2ccc(-c3nncc(N4CCCC(CN)C4)n3)cc12 (stereo not drawn) [Compound 35, 5-(3-aminmethylopiperidin-1-yl)-3-(3-methylindazol-5-yl)-[1,2,4]triazine] | – | – | > 1000 |
| c1cc2[nH]nc(C3CC3)c2cc1-c1nncc(N2CCNCC2)n1 [Compound 75, 3-(3-cyclopropylindazol-5-yl)-5-piperazin-1-yl-[1,2,4]triazine] | – | – | > 1000 |
| Cc1n[nH]c2ccc(-c3nnc(Cl)c(N4CCCC(CN)C4)n3)cc12 (stereo not drawn) [Compound 36, 5-(3-aminmethyiopiperidin-1-yl)-6-chloro-3-(3-methylindazol-5-yl)-[1,2,4]triazine] | – | – | 100 to 1000 |
| c1ccc(-c2n[nH]c3ccc(-c4nncc(N5CCNCC5)n4)cc23)cc1 [Compound 71, 3-(3-phenylindazol-5-yl)-5-piperazin-1-yl-[1,2,4]triazine] | – | – | 100 to 1000 |
| Cc1n[nH]c2ccc(-c3nncc(N4CCN[C@@H](C(C)(C)C)C4)n3)cc12 [Compound 73, 3-(3-methylindazol-5-yl)-5-[(S)-3-tert-butylpiperazin-1-yl]-[1,2,4]triazine] | – | – | 100 to 1000 |
| COC(=O)C1CN(c2nc(-c3ccc4[nH]nc(C)c4c3)nnc2Cl)CCN1 (stereo not drawn) [Compound 40] | – | – | > 1000 |

Next, values leading:

| inhibition at 1.1 µg/mL [%] | IC50 (read-out: IC50 (AKT1 inhibition)) [nM] | IC50 [1] [nM] | SMILES |
| --- | --- | --- | --- |
| > 90 | 2.6 | < 100 | Cc1n[nH]c2ccc(-c3nncc(N4CCN[C@@H](Cc5ccccc5)C4)n3)cc12 [Compound 12, 3-(3-methylindazol-5-yl)-5-[(S)-3-benzylpiperazin-1-yl]-[1,2,4]triazine] |
| – | – | 100 to 1000 | Cc1n[nH]c2ccc(-c3nncc(N4CCN[C@@H](Cc5c[nH]c6ccccc56)C4)n3)cc12 [Compound 21, 5-[(S)-3-(3-indolylmethyl)piperazin-1-yl]-3-(3-methylindazol-5-yl)-[1,2,4]triazine] |
| – | – | 100 to 1000 | Cc1n[nH]c2ccc(-c3nnc(Cl)c(N4CCCC(N)C4)n3)cc12 (stereo not drawn) [Compound 34, 5-(3-aminopiperidin-1-yl)-6-chloro-3-(3-methylindazol-5-yl)-[1,2,4]triazine] |
| – | – | < 100 | CCc1n[nH]c2ccc(-c3nncc(N4CCN[C@@H](Cc5ccccc5)C4)n3)cc12 [Compound 80, 5-[(S)-3-benzylpiperazin-1-yl]-3-(3-ethylindazol-5-yl)-[1,2,4]triazine] |
| – | – | < 100 | Cc1n[nH]c2ccc(-c3nncc(N4CCN(C)[C@@H](Cc5ccccc5)C4)n3)cc12 [Compound 28, 5-[(S)-3-benzyl-4-methyl-piperazin-1-yl]-3-(3-methylindazol-5-yl)-[1,2,4]triazine] |
| > 90 | – | < 100 | Cc1n[nH]c2ccc(-c3nnc(NCc4ccccc4)c(N4CCN[C@@H](C(C)C)C4)n3)cc12 [Compound 16, 6-benzylamino-5-[(S)-3-isopropylpiperazin-1-yl]-3-(3-methylindazol-5-yl)-[1,2,4]triazine] |
| > 90 | – | < 100 | Cc1n[nH]c2ccc(-c3nnc(Cl)c(N4CCN[C@@H](Cc5ccccc5)C4)n3)cc12 [Compound 13, 5-[(S)-3-benzylpiperazin-1-yl]-6-chloro-3-(3-methylindazol-5-yl)-[1,2,4]triazine] |
| – | – | < 100 | Cc1n[nH]c2ccc(-c3nncc(N4CCNC5(CCCCC5)C4)n3)cc12 [Compound 44, 5-(1,4-diaza-spiro[5.5]undec-4-yl)-3-(3-methylindazol-5-yl)-[1,2,4]triazine] |
| – | – | < 100 | Cc1n[nH]c2ccc(-c3nnc(N)c(N4CCN[C@@H](C(C)(C)C)C4)n3)cc12 [Compound 81, 6-amino-3-(3-methylindazol-5-yl)-5-[(S)-3-tert-butylpiperazin-1-yl]-[1,2,4]triazine] |
